Where a name gives a salt, the structure may show the parent alone.
What was measured:
[1] = test system: ulcers induced by absolute ethanol; assay: Protective activity, ulcers induced by absolute ethanol; format: in vivo, rats
Source text: As explained previously, the compound of formula (I), which shall henceforth be referred to herein as LV-216, combines the advantage of anti-inflammatory and protective action.

[2] = acid as such; cited from earlier work
[3] = test system: ulcerous lesions in the stomach and intestine; assay: Comparative ulcerogenic action, macroscopic lesion indices (Adami's criterion); format: in vivo, Female Wistar rats
Description: Group I: control (excipient) (n=8)
Group II: sodium salt 10 mg/kg (n=8)
Group IV: sodium salt 10 mg/kg+zinc sulphate 2.5 mg/kg (n=8) (equivalent doses).
The products were administered orally every day for four consecutive days. The animals were given no food during the 24 hours prior to the last dose.

O=C(O)Cc1ccccc1Nc1c(Cl)cccc1Cl [2-(2,6-dichloroaniline)-phenylacetic acid]
inhibition of ulcers induced by absolute ethanol (in words) ([1]; equimolecular dose): does not inhibit the ulcers induced by absolute ethanol | Water solubility (in words, background) [2]: practically insoluble in water

O=C(O)Cc1ccccc1Nc1c(Cl)cccc1Cl [sodium salt, sodium salt of 2-(2,6-dichloroaniline)-phenylacetic acid]
mm lesion (lesion index) ([1]; LV-216 11 mg/kg, sodium salt at equimolecular dose, control 86.3 ± 9.4): 70.8 ± 8.2 mm | % inhibition of ulcers ([1]; versus control, LV-216 11 mg/kg, sodium salt at equimolecular dose): 17.9% | Macroscopic lesion index (x ± e) ([3]; oral, daily for four consecutive days, SS 10 mg/kg, LV-216 11 mg/kg, SS 10 mg/kg + zinc sulphate 2.5 mg/kg, n=8, control 0.4 ± 0.2): 4.0 ± 0.4 | t vs CONTROL (lesion index) ([3]; versus control): *** (p < 0.001) | ulcerous index versus control (in words) ([3]; versus control): statistically significant versus the control groups

zinc compound of 2-(2,6-dichloroaniline)-phenylacetic acid [LV-216]
t test of mm lesion versus control ([1]; 11 mg/kg, versus control): a (p < 0.01 versus control) | inhibition of ulcers induced by ethanol (protective action) ([1]; rats, doses of between 5 and 15 mg/kg): ≤ 80% | gastric tolerance (in words) ([3]; compared with sodium salt alone or in combination with zinc): surprisingly high degree of gastric tolerance, greater than that shown by the sodium salt administered alone or in combination with Zinc

Reference: patent US5091547A, “Phenylacetic acid derivative and process for making same” (priority 1989, dated 1992)
